Here are results for three compounds from US20120189558A1, “ANTI-BACTERIAL COMPOSITIONS COMPRISING EXTRACTS OF EREMOPHILA LONGIFOLIA AND METHODS FOR USE OF SAME” (priority 2009, published 2012).

Molecules are shown by their SMILES. In brackets after ≈: the same amount, converted by molar mass.

Assay [1] deals with S. mutans biofilm. Kind of assay: S. mutans artificial biofilm assay. The format is cell-based, Streptococcus mutans. The following applies: 5 mg/ml, 1 hour treatment. As to the method:
(§1) Artificial biofilm assays were performed based on the method of Alviano et al. (2008). Non-stimulated saliva was collected from a healthy donor and 20 μL was placed on sterile 0.22 μm Millipore membrane disks of 13 mm diameter, previously placed over BHI agar plates. Plates were incubated for 48 hours at 37° C. After biofilm growth, the disks were collected and each disk was placed inside a bottle containing 3 ml of stem extract (5 mg/ml or 10 mg/ml in ethanol), Milli-Q distilled water or ethanol for 1 hour at 37° C. with gentle shaking. Then, the disks were briefly washed with Milli-Q distilled water to remove the plant extract and unbound bacterial cells, and the biofilm was extracted by vortexing the disks in 1 ml of BHI broth. Immediately, serial dilutions were performed and 100 μL of each dilution were spread on BHI agar. The plates were incubated in candle jars for 48 hours at 37° C. and a viable count was performed. An S. mutans artificial biofilm assay was performed by repeating the above method except that a pure ON culture of S. mutans was grown on the membrane disks instead of salivary bacteria. Both this assay and the salivary assay were performed in duplicate.

Assay [2] relates to salivary bacteria biofilm. In words: Salivary bacteria artificial biofilm assay. The format is cell-based, human. The following applies: 5 mg/ml, 1 hour treatment. As for the experimental part: as §1
The test system of assay [3] is S. sobrinus (6715-247). Kind of assay: Plate-hole and disk diffusion assays. The format is cell-based, Streptococcus sobrinus. The following applies: 2 mg/ml positive control, mean +/- SD of three plate-hole and three disk diffusion assays. As for the experimental part: (§2) Plate-hole diffusion assays were used to test for antibacterial activity (Palombo and Semple, 2001). A pure colony of each culture was grown in BHI broth and 200 μL were added to 15 ml of molten BHI agar. The inoculated agar was gently mixed and transferred to a sterile petri dish. Once set and dried, a sterilised core-borer (6 mm diameter) was used to make wells in the agar, and 10 μL of plant extract were added into each well. One well on each plate was filled with neat solvent as a control. Disk diffusion assays were also used to test for antibacterial activity (Pennacchio et al., 2005). 10 μL of each extract and control were placed on sterile paper disks (6 mm diameter, Oxoid) and allowed to dry for 25 minutes. 100 μL of each overnight (ON) culture was spread on BHI agar and allowed to dry for 10 minutes. Disks were transferred to the agar surface. Both plate-hole and disk diffusion assays were incubated overnight at 37° C. in candle jars and were carried out in triplicate.
In general terms: A growth-free zone around the sample is the usual read-out of agar diffusion tests.

For assay [4], the system named is Streptococcus mutans (969). In words: Plate-hole and disk diffusion assays. Format: cell-based. The following applies: S. mutans, 2 mg/ml positive control, mean +/- SD of three plate-hole and three disk diffusion assays. As to the method: as §2
Assay [5] has as its system a selection of Streptococcus species. To be noted: isolated active compound; Hu et al., 2000; cited from earlier work.
Assay [6] has as its system Stenotrophomonas maltophila - antibiotic-resistant clinical isolate. In words: MIC by CLSI microbroth dilution. The format is cell-based, Stenotrophomonas maltophilia. The following applies: Stenotrophomonas sp. LMG 10879; isolate GN13. As for the experimental part:
(§3) A study was carried out to determine the minimum inhibitory concentration (MIC) for Emubush extract and a comparator against a panel of isolates using Clinical and Laboratory Standards Institute (CLSI) broth methodology.
(§4) The Emubush extract was prepared by dissolving 95.2 mg in ethanol. The solvent was then evaporated off and the material re-dissolved in ethanol at room temperature.
(§5) MIC was determined by microbroth dilution following CLSI methodology. [CLSI Methods for Dilution Antimicrobial Susceptibility Tests for Bacteria That Grow Aerobically; Approved Standard-Eighth Edition. CLSI Document M07-A8. CLSI, Wayne, Pa. 19087-1898, USA, 2009].
A general note: Broth dilution looks for growth in wells or tubes with falling amounts of substance.

Assay [7] concerns Serratia marcescens - antibiotic-susceptible clinical isolate. In words: MIC by CLSI microbroth dilution. Format: cell-based. The following applies: isolate GN08. As to the method:
as §3, §4, §5

In assay [8] the test system is Serratia marcescens - multi-drug resistant clinical isolate. Kind of assay: MIC by CLSI microbroth dilution. To be noted: isolate GN09. Format: cell-based. As to the method: as §3, §4, §5
Assay [9] relates to Staphylococcus epidermidis - antibiotic susceptible clinical isolate. In words: MIC by CLSI microbroth dilution. The format is cell-based. To be noted: isolate GP7. As to the method: as §3, §4, §5
Assay [10] deals with Staphylococcus aureus - methicillin-resistant clinical isolate. In words: MIC by CLSI microbroth dilution. Format: cell-based. To be noted: isolate GP4. As to the method:
as §3, §4, §5

For assay [11], the system named is Burkholderia cepacia - antibiotic-susceptible clinical isolate. In words: MIC by CLSI microbroth dilution. To be noted: isolate GN14. Format: cell-based. As to the method: as §3, §4, §5
Assay [12] concerns Staphylococcus epidermidis - methicillin-resistant clinical isolate. Kind of assay: MIC by CLSI microbroth dilution. To be noted: isolate GP8. Format: cell-based. As for the experimental part: as §3, §4, §5
The subject of assay [13] is Staphylococcus aureus ATCC 29213 - antibiotic-susceptible type strain. In words: MIC by CLSI microbroth dilution. The following applies: ATCC29213, isolate GP1. Format: cell-based. As for the experimental part: as §3, §4, §5
For assay [14], the system named is Streptococcus pyogenes - antibiotic-susceptible clinical isolate. Kind of assay: MIC by CLSI microbroth dilution. Format: cell-based. To be noted: isolate GP59. As to the method: as §3, §4, §5
In assay [15] the test system is Stenotrophomonas maltophilia - antibiotic-susceptible clinical isolate. Kind of assay: MIC by CLSI microbroth dilution. The format is cell-based. The following applies: isolate GN12. As for the experimental part: as §3, §4, §5
Assay [16] relates to Streptococcus pneumoniae - multi-drug resistant clinical isolate. Kind of assay: MIC by CLSI microbroth dilution. Format: cell-based. The following applies: isolate GP24. As to the method:
as §3, §4, §5

In assay [17] the test system is Pseudomonas aeruginosa - multi-drug resistant clinical isolate. In words: MIC by CLSI microbroth dilution. Format: cell-based. To be noted: isolate GN11. As for the experimental part: as §3, §4, §5
In assay [18] the test system is Staphylococcus aureus ATCC 43300 - methicillin-resistant type strain. Kind of assay: MIC by CLSI microbroth dilution. Format: cell-based. The following applies: ATCC43300, isolate GP3. As to the method:
as §3, §4, §5

For the compound `[H]/N=C(\N/C(=N/[H])NCCCCCCNC(=N)NC(=N)Nc1ccc(Cl)cc1)Nc1ccc(Cl)cc1` [Chlorhexidine, chlorhexidine], the “reduction in viable biofilm cells” value in assay [1] and in [2] was “greatest reduction in viable biofilm bacteria” throughout. The “mean diameter of the growth inhibition zone” value in assay [3] was 20.5 +/− 0.6 mm; in assay [3] (listed as chlorhexidine), 20.5+/−0.6 mm; in assay [4], 22.1 +/− 0.6 mm; in [4] (listed as chlorhexidine) it was 22.1+/−0.6 mm.

For `COc1ccc2cc3[n+](cc2c1OC)CCc1cc2c(cc1-3)OCO2` [berberine], the MIC in assay [5] was 13 to 20 µg/mL.

`C[C@H]1COc2c(N3CCN(C)CC3)c(F)cc3c(=O)c(C(=O)O)cn1c23` [Levofloxacin]: the MIC in [6] stood at 2 µg/mL (≈ 5.53 µM); in assay [7], 0.06 µg/mL (≈ 0.166 µM); in assay [8], 2 µg/mL (≈ 5.53 µM); in [9] it was 0.12 µg/mL (≈ 0.332 µM); in [10], 0.12 µg/mL (≈ 0.332 µM); in assay [11], 1 µg/mL (≈ 2.77 µM). The minimal inhibitory concentration (MIC) was 0.12 µg/mL (≈ 0.332 µM) in [12]; 0.25 µg/mL (≈ 0.692 µM) in assay [13]; 0.5 µg/mL (≈ 1.38 µM) in [14]; 0.12 µg/mL (≈ 0.332 µM) in [15]; 1 µg/mL (≈ 2.77 µM) in assay [16]; 4 µg/mL (≈ 11.1 µM) in assay [17]. Also, 0.12 µg/mL (≈ 0.332 µM) was the least that counted as inhibitory in assay [18] (MIC).

Usually MIC stands for the least concentration at which growth counts as inhibited.
